Data on four compounds can be found in patent US20220002306A1, “CRYSTAL FORM OF UPADACITINIB AND PREPARATION METHOD AND USE THEREOF” (CRYSTAL PHARMACEUTICAL (SUZHOU) CO., LTD., priority 2018, published 2022).

The structures appear in SMILES notation. ≈ marks a conversion by molar mass, not a printed value. Where “and” joins values, the source holds several entries; their conditions need not be identical. Equal entries are not always repeated. Entries after “also recorded” stand apart in the source; their conditions may differ.

The conditions of data set [1]: disclosed in WO2017066775A1, cited from earlier work.
Data set [2] can be described thus: Intrinsic dissolution rate in pH 6.8 PBS. To be noted: for IDR / Cumulative dissolution: 37° C.; for Cumulative dissolution: 100 rpm; for Slope: regression line of data within 8-15 minutes. Type of data set: physicochemical. As to the method: (§1) Solubility measurement for solubility, dissolution, and intrinsic dissolution rate in PBS in the present disclosure:
The whole pellet was transferred to a dissolution apparatus to test the intrinsic dissolution rate. The slope (in μg/min) of the regression line was calculated according to the data within 8-15 minutes. Intrinsic dissolution rate (IDR) was further calculated according to the slope (in μg/min/cm^2).

Data set [3] can be described thus: Compressibility (tablet hardness, tensile strength). The data set is classed as physicochemical. As to the method:
An ENERPAC manual tablet press was used for compression. 80 mg of Form CSI of the present disclosure and prior art Form C were weighed and added into the dies of a round tooling (ensuring the isotropy of tables), compressed at 10 KN manually, and then stored at room temperature for 24 h until complete elastic recovery. Hardness (H) was tested with an intelligent tablet hardness tester. Diameter (D) and thickness (L) were tested with a caliper. […] Under a certain force, the greater the tensile strength, the better the compressibility.

Data set [4] is described as follows: In vitro dissolution of drug product (tablet) in pH 6.8 PBS. To be noted: for Cumulative dissolution: drug product of example 16, 30 mg, 37° C., paddle 75 rpm. Type of data set: physicochemical.
For data set [5] the following is noted: FaSSIF (pH 6.5, 37° C.); disclosed in WO2017066775A1; cited from earlier work.
A short description of data set [6]: Kinetic solubility in pH7.4 PBS, FaSSIF and FeSSIF. The data set is classed as physicochemical. To be noted: for solubility at 24 h / solubility at 34 h / solubility at 48 h: thermodynamic from solid. As to the method:
Solubility measurement for freebase content in upadacitinib freebase acetic acid solvate of the present disclosure. Solubility measurement for upadacitinib freebase acetic acid solvate of the present disclosure in FaSSIF and FeSSIF:
as §1
The solubility of Form C was disclosed in WO2017066775A1. In order to have a comparison with Form C, solubility of Form CSI was measured. Saturated solutions of Form CSI of the present disclosure were prepared with pH7.4 PBS, pH6.5 FaSSIF and pH5.0 FeSSIF at 25° C. or 37° C. After equilibration for 24 h, 34 h and 48 h, the saturated solutions were obtained by filtration. The concentrations of compound I in the saturated solutions were measured by high performance liquid chromatography (HPLC) and the results are listed in Table 8.

Data set [7] can be described thus: Storage stability of drug substance (XRPD before and after storage). The data set is classed as physicochemical. To be noted: for Solid Form after storage: sealed. As to the method:
Solid samples of Form CSI in the present disclosure were sealed and stored under different conditions of 4° C., 25° C./60% RH, 40° C./75% RH, and 60° C./75% RH. Crystalline form was checked by XRPD before and after storage.

Data set [8] is described as follows: Mechanical stability (tableting, grinding; XRPD). Type of data set: physicochemical. As to the method:
20 mg of Form CSI was weighed into the die of 16 mm round tooling (IDR punch), and tableted by ENERPAC manual tablet press with 3 kN, 7 kN, and 14 kN pressure.
A small amount of Form CSI was grounded manually for 5 minutes in a mortar.

Data set [9] can be described thus: Particle size distribution. As to conditions: wet mode, Isopar G, after 30 seconds of ultrasound. The data set is classed as physicochemical. As to the method:
The particle size distribution data in the present disclosure were acquired by a Mastersizer 3000 laser particle size analyzer of Malvern. The test is carried out in wet mode by Hydro MV dispersing device, and the dispersion medium is Isopar G. The method parameters of the laser particle size analyzer are as follows:
The mixture was mixed thoroughly and transferred into the Hydro MV dispersing device. The experiment started when the obscuration is in an appropriate range. The particle size distribution was tested after 30 seconds of ultrasound. The particle size distribution (PSD) patterns are substantially as depicted in FIG. 15 (Form CSI) and FIG. 16 (Form C).

A short description of data set [10]: Crystalline form before and after formulation process (XRPD). The data set is classed as physicochemical. From the text:
Form CSI of the present disclosure was made into tablet according to the formulation in Table 15 and process in Table 16. Crystalline forms before and after formulation were checked by XRPD, and the XRPD pattern overlay is substantially as depicted in FIG. 17.
Crystalline forms before and after formulation were checked by XRPD, and the comparison of XRPD patterns are substantially as depicted in FIG. 18.

Setting [11] is: PBS pH 7.4, aqueous buffer, pH 7.4 PBS, 25° C.
Setting [12] is: grounded manually for 5 minutes in a mortar.

On to `CC[C@@H]1CN(C(=O)NCC(F)(F)F)C[C@@H]1c1cnc2cnc3[nH]ccc3n12` [Form A], for which, in data set [1], the Crystallinity and stability result was “poor crystallinity and stability”; the Dehydration entry is reported as “can be easily dehydrated to form amorphous”.
Broadly, the Solubility is how much of the substance goes into solution per volume. Take `CC[C@@H]1CN(C(=O)NCC(F)(F)F)C[C@@H]1c1cnc2cnc3[nH]ccc3n12` [Form C in WO2017066775A1, (3S,4R)-3-ethyl-4-(3H-imidazo[1,2-a]pyrrolo[2,3-e]pyrazine-8-yl)-N-(2,2,2-trifluoroethyl) pyrrolidine-1-carboxamide, reference compound]: the IDR in data set [2] is recorded as 81.6204 μg/min/cm^2. Also, the Cumulative dissolution stood at 94.7 µg in data set [2] (8 min); 207.4 µg in data set [2] (10 min); 388.1 µg in data set [2] (15 min); 0.0% in data set [4] (0 min); 22.7% in data set [4] (5 min); 32.6% in data set [4] (10 min). Moreover, the Cumulative dissolution in data set [4] (15 min) worked out at 39.2%; in data set [4] (20 min), 44.4%; in data set [4] (30 min), 51.5%; in data set [4] (45 min), 59.5%; in [4] (60 min), 65.2%. The same compound showed a Slope in data set [2] of 40.8102 µg/min. In [3] (80 mg compressed at 10 KN), this compound registered a Mean tensile strength of 0.69 MPa. Also, the Solubility in data set [5] was 220 µg/mL (≈ 0.578 mM).
A word on the solubility: it is how much of the substance goes into solution per volume. A higher solubility goes with a readily soluble substance. Turning to `CC[C@@H]1CN(C(=O)NCC(F)(F)F)C[C@@H]1c1cnc2cnc3[nH]ccc3n12` [Form CSI, (3S,4R)-3-ethyl-4-(3H-imidazo[1,2-a]pyrrolo[2,3-e]pyrazine-8-yl)-N-(2,2,2-trifluoroethyl) pyrrolidine-1-carboxamide], the solubility at 24 h amounted to 790 µg/mL (≈ 2.08 mM) in data set [6] (setting [11]); 3800 µg/mL (≈ 9.99 mM) in data set [6] (FaSSIF (pH 6.5, 37° C.)); 3100 µg/mL (≈ 8.15 mM) in data set [6] (FeSSIF (pH 5.0, 37° C.)). In addition, the solubility at 34 h came to 710 µg/mL (≈ 1.87 mM) in [6] (setting [11]); 4100 µg/mL (≈ 10.8 mM) in data set [6] (FaSSIF (pH 6.5, 37° C.)); 3000 µg/mL (≈ 7.89 mM) in data set [6] (FeSSIF (pH 5.0, 37° C.)). In addition, the solubility at 48 h in data set [6] (setting [11]) turned out to be 660 µg/mL (≈ 1.74 mM); in data set [6] (FaSSIF (pH 6.5, 37° C.)) it was 4100 µg/mL (≈ 10.8 mM); in data set [6] (FeSSIF (pH 5.0, 37° C.)), 3100 µg/mL (≈ 8.15 mM). Besides, in [6] (pH7.4 PBS, pH6.5 FaSSIF and pH5.0 FeSSIF), the “Solubility compared with Form C” value is “higher than that of Form C”. Also, the IDR in [2] came to 665.4630 μg/min/cm^2. Further, the Cumulative dissolution in [2] (8 min) amounted to 746.1 µg; in data set [2] (10 min) it was 1458.8 µg; in data set [2] (15 min) it was 3087.0 µg; in [4] (0 min), 0.0%; in data set [4] (5 min) it was 28.7%; in [4] (10 min), 46.4%. Further, the Cumulative dissolution is given as 53.6% in data set [4] (15 min); 57.5% in [4] (20 min); 61.3% in data set [4] (30 min); 64.9% in [4] (45 min); 67.3% in data set [4] (60 min). This compound came in with a Slope in data set [2] of 332.7315 µg/min. Further, in [7] (4° C.), the “Time the crystalline form kept stable” value was “at least 6 months”. Moreover, the “Chemical purity during storage” value in [7] (4° C., 40° C./75% RH and 60° C./75% RH) is “remains substantially unchanged”; in data set [7] (25° C./60% RH), “remains substantially unchanged”. Also, the “Solid Form after storage” value in [7] (4° C., 6 months) is on record as “Form CSI”; in data set [7] (25° C./60% RH, 6 months), “Form CSI”; in data set [7] (40° C./75% RH, 2 weeks), “Form CSI”; in data set [7] (60° C./75% RH, 2 weeks), “Form CSI”. Besides, the “Crystalline state after tableting” value in data set [8] (3 kN, 7 kN, and 14 kN pressure) is recorded as “does not change”. Besides, the Crystallinity after tableting result in data set [8] (3 kN, 7 kN, and 14 kN pressure) is on record as “remains substantially unchanged”. Moreover, the “Crystalline state after grinding” value in data set [8] (setting [12]) is “does not change; also recorded: remains unchanged after grinding”. In addition, the Crystallinity after grinding entry in data set [8] (setting [12]) is “remains substantially unchanged”. The “Particle size distribution compared with Form C in WO2017066775A1” value in data set [9] is reported as “more uniform particle size distribution”. Also, the Mean tensile strength in [3] (80 mg compressed at 10 KN) is given as 1.53 MPa. The Hardness in data set [3] (80 mg compressed at 10 KN, tablets No. 1-3) is 3.53 kgf and 3.06 kgf and 3.43 kgf. The Tensile strength in [3] (80 mg compressed at 10 KN, tablets No. 1-3, T=2H/πDL*9.8) is 1.57 MPa and 1.43 MPa and 1.58 MPa. The “Compressibility compared with Form C” value in data set [3] (compressed at 10 KN) was “better compressibility than Form C in WO2017066775A1”. Further, the “Dissolution rate of drug product compared with Form C” value in data set [4] was “obviously better than that of Form C in WO2017066775A1”. Moreover, in data set [10] (tablet of Example 15 (Table 15, Table 16)), the “Physical stability before and after formulation process” value is “good physical stability”. Further, the “Crystalline form after formulation process” value in data set [10] (tablet of Example 16 (Table 17, Table 18)) is recorded as “remains unchanged”.
Take `CC[C@@H]1CN(C(=O)NCC(F)(F)F)C[C@@H]1c1cnc2cnc3[nH]ccc3n12` [Form D]: the Form conversion entry in data set [1] (high water activity) is “will convert to Form C”.
